Assay results taken from US3944498A, “Germicidal detergent containing a thienyliodonium salt” (The Dow Chemical Company, priority 1973, dated 1976).

Experiments:
[1] = system: Sprague-Dawley (Cox strain) rats; test: Oral median lethal dose in Sprague-Dawley (Cox strain) rats; assay type: in vivo
Protocol: (§1) The oral median lethal dose (LD50) of ClPhThICl was also determined in Sprague-Dawley (Cox strain) rats within a weight range of 93 to 118 grams. Five groups of rats, each consisting of 10 males and 10 females, were given the compound in an aqueous 0.5 percent METHOCEL hydroxypropyl methylcellulose (4000 cps.) suspension at a concentration of 300 mg/ml. The compound was administered as a single oral dose at 0.2 logarithmic dose intervals (709, 1120, 1780, 2820, 4450 mg/kg), and the following mortality experience was noted:
(§2) The percent of total mortalities occurring was 53.9, 79.3, 85.7 and 93.6 at 6, 24, 48 and 72 hours post-treatment, respectively. The last death occurred between 72 and 96 hours post-treatment in male rats in the 1780 and 4450 mg/kg groups.

[2] = as above; assay type: in vivo; conditions: rat, in vivo, po; for LD50: 7 and 14 days
Protocol: as §1, §2

[3] = system: Sprague-Dawley (Cox strain) rats; test: as above; assay type: in vivo; conditions: 708 mg/kg oral, 24 Hours
[4] = system: organisms of mold and mildew; test: Protection of latex paint on wood panels from mold and mildew, tropical chamber; conditions: 0.3 percent by weight in latex paint, two months, 95 percent RH, 82°F
Protocol: 4-Chlorophenyl-2-thienyliodonium chloride is employed in a paint composition to protect the paint from attack and subsequent degradation by the organisms of mold and mildew. In such operations, the salt compound is dispersed and incorporated in the latex paint in the amount of 0.3 percent by weight of the ultimate paint composition.
The paint employed in these operations is prepared by intimately blending a pigment dispersion with a letdown including a synthetic latex comprising an interpolymer of ethyl acrylate, methyl methacrylate, acrylic acid and methacrylic acid. The paint has the following composition.
Wood panels are then painted with the modified compositions as well as with the unmodified paint. The panels are dried and thereafter exposed two months in a tropical chamber at a relative humidity of 95 percent and a temperature of 82°F. (28°C.). Following this period, the wood panels are examined to ascertain what control of […] is obtained.

## Clc1ccc([I+]c2cccs2)cc1.[Cl-] [4-Chlorophenyl-2-thienyliodonium chloride]
[1]; 708 mg/kg oral, 7 Days, females
  No. Dead: 0/10
[1]; 708 mg/kg oral, 7 Days, males
  No. Dead: 1/10
[1]; 708 mg/kg oral, 14 Days, females
  No. Dead: 0/10
[1]; 708 mg/kg oral, 14 Days, males
  No. Dead: 1/10
[1]; 1120 mg/kg oral, 7 Days, females
  No. Dead: 6/10
[1]; 1120 mg/kg oral, 7 Days, males
  No. Dead: 2/10
[1]; 1120 mg/kg oral, 14 Days, females
  No. Dead: 6/10
[1]; 1120 mg/kg oral, 14 Days, males
  No. Dead: 2/10
[1]; 1120 mg/kg oral, 24 Hours, females
  No. Dead: 2/10
[1]; 1120 mg/kg oral, 24 Hours, males
  No. Dead: 1/10
[1]; 1780 mg/kg oral, 7 Days, females
  No. Dead: 7/10
[1]; 1780 mg/kg oral, 7 Days, males
  No. Dead: 9/10
[1]; 1780 mg/kg oral, 14 Days, females
  No. Dead: 7/10
[1]; 1780 mg/kg oral, 14 Days, males
  No. Dead: 9/10
[1]; 1780 mg/kg oral, 24 Hours, females
  No. Dead: 6/10
[1]; 1780 mg/kg oral, 24 Hours, males
  No. Dead: 4/10
[1]; 2820 mg/kg oral, 7 Days, females
  No. Dead: 10/10
[1]; 2820 mg/kg oral, 7 Days, males
  No. Dead: 8/10
[1]; 2820 mg/kg oral, 14 Days, females
  No. Dead: 10/10
[1]; 2820 mg/kg oral, 14 Days, males
  No. Dead: 8/10
[1]; 2820 mg/kg oral, 24 Hours, females
  No. Dead: 9/10
[1]; 2820 mg/kg oral, 24 Hours, males
  No. Dead: 8/10
[1]; 4450 mg/kg oral, 7 Days, females
  No. Dead: 10/10
[1]; 4450 mg/kg oral, 7 Days, males
  No. Dead: 10/10
[1]; 4450 mg/kg oral, 14 Days, females
  No. Dead: 10/10
[1]; 4450 mg/kg oral, 14 Days, males
  No. Dead: 10/10
[1]; 4450 mg/kg oral, 24 Hours, females
  No. Dead: 10/10
[1]; 4450 mg/kg oral, 24 Hours, males
  No. Dead: 9/10
[1]; 6 hours post-treatment
  percent of total mortalities occurring: 53.9%
[1]; 24 hours post-treatment
  percent of total mortalities occurring: 79.3%
[1]; 48 hours post-treatment
  percent of total mortalities occurring: 85.7%
[1]; 72 hours post-treatment
  percent of total mortalities occurring: 93.6%
[2]; female rats, 95% confidence limits 785-1540 mg/kg
  LD50: 1100 mg/kg
[2]; male rats, 95% confidence limits 1171-2296 mg/kg
  LD50: 1640 mg/kg
[2]; female rats, 95% confidence limits 1230-2080 mg/kg
  LD50 at 24 h: 1600 mg/kg
[2]; male rats, 95% confidence limits 1241-2610 mg/kg
  LD50 at 24 h: 1800 mg/kg
[3]; females
  No. Dead: 0/10
[3]; males
  No. Dead: 1/10
[4]
  control of growth of mold and mildew on painted panels: complete control of the growth of the organisms of mold and mildew
